The values below come from patent US7838496B2, “Template-fixed peptidomimetics as medicaments against HIV and cancer” (Polyphor AG/Ltd., priority 2003, dated 2010).

The nature of data set [1]: in vitro. The data set is classed as cell-based. How it is done:
The cytotoxicity of the peptides to HELA cells (Acc57) and COS-7 cells (CRL-1651) was determined using the MTl reduction assay [see ref. 6 and 7, below]. Briefly the method was as follows: HELA cells and COS-7 cells were seeded at 7.0·10^3 and, respectively, 4.5·10^3 cells per well and grown in 96-well microtiter plates for 24 hours at 37° C. at 5% CO2. At this point, time zero (Tz) was determined by MTT reduction (see below). The supernatant of the remaining wells was discarded and fresh medium and the peptides in serial dilutions of 12.5, 25 and 50 μM were pipeted into the wells. Each peptide concentration was assayed in triplicate. Incubation of the cells was continued for 48 hours at 37° C. at 5% CO2. Wells were then washed once with PBS and subsequently 100 μl MTT reagent (0.5 mg/mL in medium RPMI1640 and, respectively, DMEM) was added to the wells. This was incubated at 37° C. for 2 hours and subsequently the medium was aspirated and 100 μl isopropanol was added to each well. The absorbance at 595 nm of the solubilized product was measured (OD595peptide). For each concentration averages were calculated from triplicates. The percentage of growth was calculated as follows: (OD595peptide-OD595Tz-OD595Empty well)/(OD595Tz-OD595Empty well)×100% and was plotted for each peptide concentration.
The LC 50 values (Lethal Concentration, defined as the concentration that kills 50% of the cells) were determined for each peptide by using the trend line function of EXCEL (Microsoft Office 2000) for the concentrations (50, 25, 12.5 and 0 μM), the corresponding growth percentages and the value −50, (=TREND(C50:C0,%50:%0,−50))
(§1) All fine chemicals came from Merck (D)armstadt, Germany).

Data set [2] has as its system 'CCR5' cells / Hut/4-3 cells co-cultivation. The data set is described as follows: FIGS-Assay (co-cultivated cell cultures, beta-galactosidase/ONPG read-out). The conditions noted are these: at 200 nM; 48 hours of co-cultivation. It is filed as cell-based. How it is done: The assay was performed according to ref. 5, below. Stock dilutions of the peptides (10 mM) were prepared by dissolving in 10 mM Tris-HCl at room temperature. Stock solutions were kept at +4° C., light protected. Working dilutions were prepared extemporaneously by serial dilution in Phosphate Buffered Saline (PBS) and added in a final volume of 10 μL directly to the cell cultures. After 48 hours of co-cultivation the cultures were rinsed with PBS and then exposed to glutaraldehyde/formaldehyde (0.2%/2%) in PBS for five minutes. For photometric quantification the fixed cultures were subsequently incubated with ortho-nitro-phenyl-galactopyranoside (ONPG) as a O-galactosidase substrate, which was enzymatically converted into the chromophore ortho-nitrophenol (ONP). The read out is directly obtained by measuring optical density of wells at 405 nm in an IEMS 96 well-plate reader.
as §1

The target of data set [3] is T1, CXCR4 (Homo sapiens, UniProt P61073).
T1 construct: expressed in transfected cells
The data set is described as follows: Ca2+ assay: CXCR4 antagonizing activity of the peptides. It is filed as cell-based. The conditions noted are these: CXCR4 transfected pre-B cells, Fura-2 fluorescence, 37° C. The protocol:
2.2. Ca^2+− assay: CXCR4Antagonizing Activity of the Peptides
3-4 Mio CXCR4 transfected pre-B cells [see references 1, 2 and 3, below] per measurement were resuspended in 200 μl MSB (20 mM 4-(2-Hyddroxyethyl)-piperazin-1-ethansulfonic acid (HEPES), 136 mM NaCl, 4.8 mM KCl and 1 mM CaCl2) containing 5 mM D-Glucose and were loaded with 0.75 μl of 1 mM Fura-2-acetoxymethylester for 17 minutes at 37° C. The cells were washed free from Fura-2-AM with a platelet centrifuge and resuspended in 800 R1 MSB containing 5 mM D-Glucose. The peptides to be administered were diluted to a 100 fold end concentration in MSB/0.2% PPL, and 8 pl were injected. [Ca^2+ ]i-dependent fluorescence change in response to single or sequential stimulation with the peptide was recorded with a fluorimeter at an excitation wavelength of 340 nm and an end emission wavelength of 510 nm [see ref. 4, below]. Measurements were done under continuous stirring at 37° C. The signal intension was calibrated with 3 mM4 CaCl2/1 nM lonomycin (maximal fura-2-acetoxymethylester saturation) and […] MnCl2 (minimal Fura-2-acetoxymethylester saturation) and [Ca^2+]i-changes are presented in % fura-2-acetoxymethylester saturation.
MSB: 20 nmM HEPES, 136 mM NaCl, 4.8 mM KCl, 1 mM CaCl2.2H2O, pH 7.4; Osmolarity: 310 mOsm adjusted with NaOH or HCl, adjusted with dH2O or PBS.
MSB plus: 5 mM D-glucose in MSB (50 mg/50 mL).
Fura 2-acetoxymethylester: 1 mM stock solution in dimethylsulfoxide.

The target in data set [4] is CCRF-CEM cells (Homo sapiens, UniProt P61073). As to conditions: read-out: IC50 (μM) Cell migration assay; CCRF-CEM cells migrating to 1 nM SDF-1, 4 hours.
Procedure: BELA cells and CCRF-CEM cells were maintained in RPMI1640 plus 5% FBS, Pen/Strept and 2 mM L-Glutamine. […] All cell lines were grown at 37° C. at 5% CO2. Cell media, media supplements, PBS-buffer, HEPES, Pen/Strept., L-Glutamine and sera were purchased from Gibco (Pailsey, UK). All fine chemicals came from Merck (D)armstadt, Germany).
Chemotactic Assay (Cell Migration Assay)
The chemotactic response of CCRF-CEM cells to a gradient of stromal cell-derived factor 1 a (SDF-1) was measured using disposable assay plates from Neuroprobe (5 μ pore size) (Gaithersburg, Md.), according to the manufacturer's directions and references therein [especially ref. 8, below]. Briefly, one 175 cm^2 flask was washed once with Dubecco's phosphate buffered saline (DPBS), and trypsinized for 10 minutes or until cells had lifted. The trypsin was neutralized by the addition of fresh medium containing serum and the cells were pelleted, washed once in DPBS, and resuspended at 1-0.5×10^7 cells/ml in RPM!+0.5% bovine serum albumin (BSA). 451 μl of cell suspension were mixed with 5μ of 10-fold concentrated PEM peptide diluted in the same assay medium. 35 μl of this mixture were applied to the top of the assay filter. The cells were allowed to migrate (at 37°) into the bottom chamber of the assay plate containing 1 nM SDF-1. After 4 hours, the filter was removed and MTT was added to the migrated cells to a final concentration of 0.5 mg/ml, and incubated for a further 4 hours. After labeling with MTT, all medium was removed and 100 μl of isopropanol+10 mM HCl were added to the cells. The optical absorbance at 595 nm (ABS595) was read using a Tecan Genios plate reader with Magellan software. The number of cells migrated was determined by comparing ABS595 values against a standard curve generated with a known number of cells in the assay plate and were plotted against SDF-1 concentration to obtain a sigmoidal curve and to determine the IC50 values. The values for IC50 were determined using the Trendline function in Microsoft Excel by fitting a logarithmic curve to the averaged datapoints.
In data set [5] the test system is human red blood cells (hRBC). The data set is classed as cell-based. The conditions noted are these: red cells of human, 1 h. The protocol: The peptides were tested for their hemolytic activity against human red blood cells (hRBC). Fresh hRBC were washed three times with phosphate buffered saline (PBS) by centrifugation for 10 min at 2000×g. Peptides at a concentration of 100 μM were incubated with 20% v/v hRBC for 1 hour at 37-C. The final erythrocyte concentration was approximately 0.9×10^9 cells per mL. A value of 0% resp. 100% cell lysis was determined by incubation of the hRBC in the presence of PBS alone and respectively 0.1% Triton X-100 in H2O. The samples were centrifuged and the supernatant was 20-fold diluted in PBS buffer and the optical density (OD) of the sample at […] was measured. The 100% lyses value (OD540H2O) gave an OD540 of approximately 1.3-1.8. Percent hemolysis was calculated as follows: (OD540peptide/OD540H2O)×100%.

Where a SMILES comes first, the peptide text is derived from it. Bridges are numbered along the chain shown (N, C = ends). [ ]: non-standard residue; d: D form. Phe(4-NH2) = Nc1ccc(C[C@H](N)C(=O)O)cc1; 2Nal = N[C@@H](Cc1ccc2ccccc2c1)C(=O)O; Cit = NC(=O)NCCC[C@H](N)C(=O)O

One may read the CC50 as the concentration giving 50% cytotoxicity.

Sequence of CCRF-CEM cells (P61073 whole entry): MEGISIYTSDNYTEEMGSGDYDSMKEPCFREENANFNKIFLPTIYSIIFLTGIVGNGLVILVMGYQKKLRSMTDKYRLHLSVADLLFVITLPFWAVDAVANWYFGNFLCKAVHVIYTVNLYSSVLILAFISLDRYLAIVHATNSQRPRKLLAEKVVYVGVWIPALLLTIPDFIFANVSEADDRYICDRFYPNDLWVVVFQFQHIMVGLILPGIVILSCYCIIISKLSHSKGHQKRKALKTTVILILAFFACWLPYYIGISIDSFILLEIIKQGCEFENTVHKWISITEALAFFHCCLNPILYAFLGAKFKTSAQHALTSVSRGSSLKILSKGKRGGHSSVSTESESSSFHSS
T1 sequence (P61073 whole entry): as above

Molecule `N=C(N)NCCC[C@@H](N)C(=O)N[C@@H](CCCNC(=N)N)C(=O)N[C@@H](Cc1ccc2ccccc2c1)C(=O)N[C@H]1CSSC[C@@H](C(=O)N[C@@H](CCCNC(=N)N)C(N)=O)NC(=O)[C@H](CCCNC(N)=O)NC(=O)[C@H](CCCNC(=N)N)NC(=O)[C@H](Cc2ccc(O)cc2)NC(=O)[C@@H]2CCCN2C(=O)[C@H]2CCCN2C(=O)[C@H](CCCCN)NC(=O)[C@H](CCCNC(N)=O)NC(=O)[C@H](Cc2ccc(O)cc2)NC1=O` [Example 10] (H-[dR]R[2Nal]CY[Cit]K[dP]PYR[Cit]CR-NH2; disulfide 4-13) had a CC50 at 48 h in data set [1] of 118 µM. Besides, the “FIGS % inhibition at 200 nM” value in data set [2] was 82.0%. For the same molecule, the IC50 in data set [3] worked out at 21.5 nM; in data set [4], 0.55 µM. The “Hemolysis at 100 μM” value in data set [5] amounted to 0.6%.

`CC(=O)N[C@@H](CCCNC(=N)N)C(=O)N[C@@H](CCCNC(=N)N)C(=O)N[C@@H](Cc1ccc2ccccc2c1)C(=O)N[C@H]1CSSC[C@@H](C(=O)N[C@@H](CCCNC(=N)N)C(N)=O)NC(=O)[C@H](CCCNC(N)=O)NC(=O)[C@H](CCCNC(=N)N)NC(=O)[C@H](Cc2ccc(O)cc2)NC(=O)[C@@H]2CCCN2C(=O)[C@H]2CCCN2C(=O)[C@H](CCCCN)NC(=O)[C@H](CCCNC(N)=O)NC(=O)[C@H](Cc2ccc(O)cc2)NC1=O` [Example 8] (Ac-RR[2Nal]CY[Cit]K[dP]PYR[Cit]CR-NH2; disulfide 4-13) came in with a CC50 at 48 h in data set [1] of 226 µM. In addition, the “FIGS % inhibition at 200 nM” value in data set [2] is 90.6%. Further, the IC50 is 13.9 nM in data set [3] and 5 µM in data set [4]. Further, the “Hemolysis at 100 μM” value in data set [5] is 0.1%.

Molecule `N=C(N)NCCC[C@H](NC(=O)[C@@H]1CSSC[C@H](NC(=O)[C@H](Cc2ccc(N)cc2)NC(=O)[C@H](CCCNC(=N)N)NC(=O)[C@@H](N)CCCNC(=N)N)C(=O)N[C@@H](Cc2ccc(O)cc2)C(=O)N[C@@H](CCCNC(N)=O)C(=O)N[C@@H](CCCCN)C(=O)N2CCC[C@@H]2C(=O)N2CCC[C@H]2C(=O)N[C@@H](Cc2ccc(O)cc2)C(=O)N[C@@H](CCCNC(=N)N)C(=O)N[C@@H](CCCNC(N)=O)C(=O)N1)C(N)=O` [Example 12] (H-RR[Phe(4-NH2)]CY[Cit]K[dP]PYR[Cit]CR-NH2; disulfide 4-13) registered a CC50 at 48 h in data set [1] of 226 µM. Besides, the “FIGS % inhibition at 200 nM” value in data set [2] was determined as 71.3%. Also, the IC50 in data set [3] worked out at 13.9 nM; in data set [4], 5 µM. In addition, the “Hemolysis at 100 μM” value in data set [5] is reported as 0.1%.
